Reference: patent publication US20260315507A1, “COMBINATION OF VITAMINS AND OLIGOSACCHARIDES FOR ENHANCING BONE GROWTH AND/OR BONE STRENGTH” (SOCIÉTÉ DES PRODUITS NESTLÉ S.A., priority 2023, published 2026)

Key:
[1] = tested on: osteocalcin mRNA in MC3T3-E1 subclone 4 cells; test: Osteocalcin mRNA levels (qPCR) in pre-osteoblastic cell line; format: cell-based; conditions: 21 days of differentiation, without ascorbic acid; 3 μM menaquinone-7, 1 nM 1α,25-dihydroxyvitamin D3 or 100 nM all-trans-retinoic acid; FIG. 1B
Source text: (§1) The pre-osteoblastic cell line MC3T3-E1 subclone 4 (CRL-2593) was purchased from ATCC (Manassas; Virginia, USA). Cells were maintained in growth medium (GM) composed of ascorbic acid-free αMEM (ThermoFisher Scientific), supplemented with 10% fetal calf serum (FCS, ThermoFisher Scientific) and 1% penicillin/streptomycin. All culture media were refreshed every 2-3 days. Cells were passaged with trypsin/EDTA solution at less than 80% confluence. To induce differentiation into osteoblasts, cells were seeded at 5×10^4 cells/cm^2 and grown to confluency in GM for 24 h. Then, the medium was switched to differentiation medium (DM) composed of GM supplemented with 10 mM β-glycerophosphate and treatment solutions of interest. Ascorbic acid 50 μg/ml was also added to the DM depending on the experiment.
MC3T3-E1 subclone 4 cells were differentiated for 21 days (in DM without ascorbic acid except for the positive control) or 28 days (in DM containing ascorbic acid). Cells were then collected for gene expression analysis. […] RNA concentrations were measured using the DropSense96 (TRINEAN, Gentbrugge, Belgium).
cDNAs were synthetized using High-Capacity cDNA Reverse Transcription Kit (AppliedBiosystems; Waltham, Massachusetts, USA) according to the manufacturer's instructions. […] The relative gene expression was evaluated via the 2^-ΔCt method.

[2] = tested on: MC3T3-E1 subclone 4 cells; test: Osteoblast alkaline phosphatase (ALP) activity in pre-osteoblastic cell line; format: cell-based; conditions: 7 days of differentiation, without ascorbic acid; 3 μM menaquinone-7, 1 nM 1α,25-dihydroxyvitamin D3 or 100 nM all-trans-retinoic acid; FIG. 1A
Source text: as §1, with “experiment. […]” for “experiment.”
After 7 days of differentiation, cells were then collected for alkaline phosphatase (ALP) activity measurement as described previously with minor modifications. […] Enzymatic reaction was monitored at 405 nm after 4-Nitrophenyl phosphate disodium salt hexahydrate addition. Michaelis-Menten kinetics were evaluated at 30° C. for 30 min. […] The activity value was normalized by protein content measured via the Pierce BCA Protein Assay Kit (ThermoFisher Scientific) according to the manufacturer's instructions.

Structure (SMILES) | effect on osteocalcin expression (mRNA) [1] | effect on ALP activity (marker of osteoblast differentiation) [2]
CC1=C(/C=C/C(C)=C/C=C/C(C)=C/C(=O)O)C(C)(C)CCC1 [vitamin A, all-trans-retinoic acid] | no significant effect | –
CC(C)=CCC/C(C)=C/CC/C(C)=C/CC/C(C)=C/CC/C(C)=C/CC/C(C)=C/CC/C(C)=C/CC1=C(C)C(=O)c2ccccc2C1=O [vitamin K2, menaquinone-7] | – | no significant effect
C=C1/C(=C\C=C2/CCC[C@]3(C)[C@@H]([C@H](C)CCCC(C)(C)O)CC[C@@H]23)C[C@@H](O)C[C@@H]1O [vitamin D, 1α,25-Dihydroxyvitamin D3] | no significant effect | –
